# Assay results reported in US20040171680A1, “Treating Syndrome X with substituted tetralins and indanes” (priority 2002, published 2004).
# Read-outs that look alike come from different tables or passages of the source.
# Assays:
# PPARα = target: T1, PPARα (Rattus norvegicus, UniProt P37230); assay: HD bDNA Assay (HD gene induction); assay type: cell-based
# T1 construct: H4IIE rat hepatoma cell line was obtained from ATCC; host or cells: H4IIE rat hepatoma cells
# T1 sequence (P37230 1-468): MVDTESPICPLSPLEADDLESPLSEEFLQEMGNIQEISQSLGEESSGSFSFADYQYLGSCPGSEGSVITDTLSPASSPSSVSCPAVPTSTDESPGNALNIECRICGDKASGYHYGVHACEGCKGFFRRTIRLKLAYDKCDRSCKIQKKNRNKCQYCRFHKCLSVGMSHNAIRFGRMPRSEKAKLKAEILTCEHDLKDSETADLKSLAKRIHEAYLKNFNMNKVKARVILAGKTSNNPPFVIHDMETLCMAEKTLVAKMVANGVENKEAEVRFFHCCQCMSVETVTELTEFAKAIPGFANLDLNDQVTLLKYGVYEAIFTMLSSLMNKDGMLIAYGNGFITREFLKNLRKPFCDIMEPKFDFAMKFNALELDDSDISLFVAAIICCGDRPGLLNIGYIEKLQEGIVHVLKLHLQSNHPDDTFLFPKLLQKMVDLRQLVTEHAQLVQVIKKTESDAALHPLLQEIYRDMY
# Description: HD bDNA Assay H4IIE rat hepatoma cell line was obtained from ATCC. Cells were cultured in 175 cm^2 tissue culture flask or seeded in 96-well plate with (high serum content, 10% fetal bovine serum and 10% calf serum) culture medium and maintained at 37° C. and 5% CO2 throughout study. Twenty-four hours after the initial seeding of the 96-well plate by hand (approximate 100,000/well), the HD gene induction assay was initiated. Media was removed and replaced with 100 ul of low serum culture media (5% charcoal/dextran treated calf serum) containing vehicle (DMSO) or test compounds or standard. Cells returned to incubator for 24 hours culture. At the termination of the challenge, 50 ul lysis buffer with HD gene specific CE, LE, BL probes was added directly into each well to initiate the bDNA HD mRNA assay. The branched DNA assay was performed according to the manufacturer's protocol (Bayer Diagnostics; Emeryville. Calif.). At the end of the assay, the luminescence was quantitated in Dynex MLX microtiter plate luminometer. EC50's were determined by non-linear regression with a sigmoidal fit utilizing Graphpad Prism.
# PPARδ = target: T2, PPARδ (Homo sapiens, UniProt Q03181); assay: Transfection Assay for PPARδ Receptors (PPAR-Gal4 / Gal4-Luciferase reporter in HEK293 cells); assay type: cell-based; conditions: for EC50: values in square brackets
# T2 construct: a Gal4-Luciferase reporter is co-transfected
# T2 sequence (Q03181 171-441 limits assumed): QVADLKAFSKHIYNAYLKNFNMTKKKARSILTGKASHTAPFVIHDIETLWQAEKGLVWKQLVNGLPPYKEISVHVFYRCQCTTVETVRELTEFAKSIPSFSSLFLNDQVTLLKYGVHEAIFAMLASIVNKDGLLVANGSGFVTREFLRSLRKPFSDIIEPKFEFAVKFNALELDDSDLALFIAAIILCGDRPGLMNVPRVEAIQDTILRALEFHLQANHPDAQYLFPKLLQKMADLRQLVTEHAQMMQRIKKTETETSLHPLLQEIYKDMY
# Description: Transfection Assay for PPARδ Receptors
# HEK293 cells were grown in DMEM/F-12 Media supplemented with 10% FBS and glutamine (GIBCOBRL). The cells were co-transfected with DNA for PPAR-Gal4 receptor and Gal4-Luciferase Reporter using the DMRIE-C Reagent. On the following day, the DNA-containing medium were replaced with 5% Charcoal treated FBS growth medium. After six hours, cells were seeded in 96 well plate and incubated at 37° C. in CO2 incubator overnight. Cells were challenged by test compounds and incubated for 24 hours at 37° C. in 5% CO2 incubator. Luciferase activity was assayed using the Steady-Glo Luciferase Assay Kit from Promega. DMRIE-C Reagent was purchased from GIBCO Cat. No.10459-014. OPTI-MEM I Reduced Serum Medium was purchased from GIBCO Cat. No. 31985. Steady-Glo Luciferase Assay Kit was obtained from Promega Part# E254B.
# db/db mice = assay: Oral dosing in female db/db mice; assay type: in vivo; conditions: Mus musculus, 240 h, 1.0 mpk, 10 day oral dosing, % change compared to vehicle
# Description: The compound was prepared as suspensions in 0.5% hydroxypropylmethylcellulose (Dow Chemical, Midland, Mich.). The dosing volume was 10 mL/kg of body weight. […] Body weight was measured in the mornings on Day 1, prior to dosing, and on Day 12 before bleeding. 18-24 hours after the final dose for each group, the mice were anesthetized with CO2/O2 (70:30) and bled by retro-orbital sinus puncture into micro-tubes containing clog activator and then put in ice. The serum samples were prepared by centrifugation. Serum glucose and triglycerides were determined by using COBAS Mira Plus blood chemistry analyzer (Roche Diagnostics, N.J.). Serum insulin was measured by using ALPCO insulin ELISA kit.
# Statistical analysis was performed using the program Prism (Graphpad, Monrovia, Calif.) and performing one-way ANOVA with a Dunnet's multiple comparison test.
# [1] = in section F, target not named there, values match the PPARα column, read-out: EC50
# [2] = H4IIE rat hepatoma cells, 24 hours, read-out: PPARα EC50
EC50 (PPARα; [1]) [nM],EC50 (PPARα; [2]) [nM],Structure (SMILES),also measured
,537,"CCCN(C(=O)Nc1cc(C)cc(C)c1)C1Cc2ccc(SC(C)(C)C(=O)O)cc2C1 (centres unmarked) [Example 33, 2-{2-[3-(3,5-Dimethylphenyl)-1-propylureido]indan-5-ylsulfanyl}-2-methylpropionic acid]","PPARδ FI (PPARδ; fold induction, PPARδ standard: FI = 36.1): 0.8"
,2340,"CCCCCCCN(C(=O)Nc1ccc(Cl)c(Cl)c1)C1Cc2ccc(SC(C)(C)C(=O)O)cc2C1 (centres unmarked) [Example 42, 2-{2-[3-(3,4-Dichlorophenyl)-1-heptylureido]indan-5-ylsulfanyl}-2-methylpropionic acid]",
,2090,"CCCCCCCN(C(=O)Nc1cccc(Cl)c1)C1Cc2ccc(SC(C)(C)C(=O)O)cc2C1 (centres unmarked) [Example 44, 2-{2-[3-(3-Chlorophenyl)-1-heptylureido]indan-5-ylsulfanyl}-2-methylpropionic acid]",
,385,"CCCCCN(C(=O)Nc1ccc(C)c([N+](=O)[O-])c1)C1Cc2ccc(SC(C)(C)C(=O)O)cc2C1 (centres unmarked) [Example 30, 2-Methyl-2-{2-[3-(4-methyl-3-nitrophenyl)-1-pentylureido]indan-5-ylsulfanyl} propionic acid]",
235,,"CCCCCCN(C(=O)Nc1ccc(OC(F)(F)F)cc1)C1CCc2cc(SC(C)(C)C(=O)O)ccc2C1 (centres unmarked) [Example 24, 2-{6-[1-Hexyl-3-(4-trifluoromethoxyphenyl)ureido]-5,6,7,8-tetrahydronaphthalen-2-ylsulfanyl}-2-methylpropionic acid]",
219,,"CCCCN(C(=O)Nc1ccc(OC(F)(F)F)cc1)C1CCc2cc(SC(C)(C)C(=O)O)ccc2C1 (centres unmarked) [Example 22, 2-{6-[1-Butyl-3-(4-trifluoromethoxyphenyl)ureido]-5,6,7,8-tetrahydronaphthalen-2-ylsulfanyl}-2-methylpropionic acid]",
244,,"CCCCN(C(=O)Nc1ccc(SC(F)(F)F)cc1)C1CCc2cc(SC(C)(C)C(=O)O)ccc2C1 (centres unmarked) [Example 23, 2-{6-[1-Butyl-3-(4-trifluoromethylsulfanylphenyl)ureido]-5,6,7,8-tetrahydronaphthalen-2-ylsulfanyl}-2-methylpropionic acid]",
,382,"CCCCCN(C(=O)Nc1ccc2c(c1)CCC2)C1Cc2ccc(SC(C)(C)C(=O)O)cc2C1 (centres unmarked) [Example 29, 2-[2-(3-Indan-5-yl-1-pentylureido)indan-5-ylsulfanyl}-2-methylpropionic acid]",

# The next lines start with the compound.
Structure (SMILES),EC50 (PPARα; [1]) [nM],EC50 (PPARα; [2]) [nM],also measured
"CCN(C(=O)Nc1ccc(OC(F)(F)F)cc1)C1CCc2cc(SC(C)(C)C(=O)O)c(Cl)cc2C1 (centres unmarked) [Example 51, 2-{6-[1-Ethyl-3-(4-trifluoromethoxyphenyl)ureido]-3-chloro-5,6,7,8-tetrahydronaphthalen-2-ylsulfanyl}-2-methylpropionic acid]",27,,EC50 (PPARδ): > 10000 nM
"CC(C)(Sc1ccc2c(c1)CC(N(Cc1cccc3ccccc13)C(=O)Nc1ccc(OC(F)(F)F)cc1)C2)C(=O)O (centres unmarked) [Example 31, 2-Methyl-2-{2-[1-naphthalen-1 ylmethyl-3-(4-trifuoromethoxyphenyl)-ureido]indan-5-ylsulfanyl}-propionic acid]",,497,
"CCN(C(=O)Nc1ccc(OC(F)(F)F)cc1)C1CCc2cc(SC(C)(C)C(=O)O)ccc2C1 (centres unmarked) [Example 1, 2-{6-[1-Ethyl-3-(4-trifluoromethoxyphenyl)ureido]-5,6,7,8-tetrahydronaphthalen-2-ylsulfanyl}-2-methylpropionic acid]",23,,change in vivo at 1 mg/kg (db/db mice; read-out: Δ BW): -12%; change in vivo at 1 mg/kg (db/db mice; read-out: Δ Plasma Glucose): -73%; change in vivo at 1 mg/kg (db/db mice; read-out: Δ Plasma Insulin): -46%; change in vivo at 1 mg/kg (db/db mice; read-out: Δ Plasma TG): -52%
"CCN(C(=O)Nc1ccc(OC(F)(F)F)cc1)C1CCc2cc(SC(C)(C)C(=O)O)c(OC(F)(F)F)cc2C1 (centres unmarked) [Example 54, 2-{6-[1-Ethyl-3-(4-trifluoromethoxyphenyl)ureido]-3-trifluoromethoxy-5,6,7,8-tetrahydronaphthalen-2-ylsulfanyl}-2-methylpropionic acid]",131,,EC50 (PPARδ): > 3000 nM
"CCN(C(=O)Nc1ccc(OC(F)(F)F)cc1)C1CCc2cc(SC(C)(C)C(=O)O)c(-c3ccccc3)cc2C1 (centres unmarked) [Example 55, 2-{6-[1-Ethyl-3-(4-trifluoromethoxyphenyl)ureido]-3-phenyl-5,6,7,8-tetrahydronaphthalen-2-ylsulfanyl}-2-methylpropionic acid]",545,,EC50 (PPARδ): 1720 nM
"CC(C)(Sc1ccc2c(c1)CC(N(CCCC(F)(F)F)C(=O)Nc1ccc(OC(F)(F)F)cc1)C2)C(=O)O (centres unmarked) [Example 36, 2-Methyl-2-{2-[1-(4,4,4-trifluorobutyl)-3-(4-trifluoromethoxyphenyl)ureido]indan-5-ylsulfanyl}propionic acid]",,796,
"CN(C)c1ccc(NC(=O)N(C)C2Cc3ccc(SC(C)(C)C(=O)O)cc3C2)cc1 (centres unmarked) [Example 27, 2-{2-[3-(4-Dimethylaminophenyl)-1-methylureido]indan-5-ylsulfanyl}-2-methylpropionic acid]",,294,
"CC(C)CN(C(=O)Nc1ccc(OC(F)(F)F)cc1)C1Cc2ccc(SC(C)(C)C(=O)O)cc2C1 (centres unmarked) [Example 41, 2-{2-[1-Isobutyl-3-(4-trifluoromethoxyphenyl)ureido]indan-5-ylsulfanyl}-2-methylpropionic acid]",,2210,
"CC(C)(Sc1ccc2c(c1)CC(N(CC1CCCCC1)C(=O)Nc1ccc(OC(F)(F)F)cc1)C2)C(=O)O (centres unmarked) [Example 40, 2-{2-[1-Cyclohexylmethyl-3-(4-trifluoromethoxyphenyl)ureido]indan-5-ylsulfanyl]-2-methylpropionic acid]",,1300,
"COCCN(C(=O)Nc1ccc(SC(F)(F)F)cc1)C1Cc2ccc(SC(C)(C)C(=O)O)cc2C1 (centres unmarked) [Example 34, 2-{2-[1-(2-Methoxyethyl)-3-(4-trifluoromethylsulfanylphenyl)ureido]indan-5-ylsulfanyl}-2-methylpropionic acid]",,657,
"CN(C)CCN(C(=O)Nc1ccc(SC(F)(F)F)cc1)C1Cc2ccc(SC(C)(C)C(=O)O)cc2C1 (centres unmarked) [Example 43, 2-{2-[1-(2-Dimethylaminoethyl)-3-(4-trifluoromethylsulfanylphenyl)ureido]indan-5-ylsulfanyl}-2-methylpropionic acid]",,2990,
"COC(=O)CCCCCN(C(=O)Nc1ccc(C(C)C)cc1)C1Cc2ccc(SC(C)(C)C(=O)O)cc2C1 (centres unmarked) [Example 38, 6-[1-[5-(1-Carboxy-1-methylethylsulfanyl)indan-2-yl]-3-(4-isopropylphenyl)-ureido]hexanoic acid methyl ester]",,950,
"CCCCCCCN(C(=O)Nc1ccc(OC(F)(F)F)cc1)C1Cc2ccc(SC3(C(=O)O)CCC3)cc2C1 (centres unmarked) [Example 45, 1-{2-[1-Heptyl-3-(4-trifluoromethoxyphenyl)ureido]indan-5-ylsulfanyl}-cyclobutanecarboxylic acid]",,780,
